Drawing on PubChem BioAssay AID298 (DTP/NCI, 2004), this text covers T/C for 16 compounds.

This test concerns MX-1 breast xenograft, intrarenal, nude mice, tumor weight. Nature of the test: NCI In Vivo Anticancer Drug Screen. Data for tumor model Human Mammary Carcinoma MX-1 Xenograft (intrarenal inoculation) in NU/NU BALB/C (nude) mice. As to conditions: endpoint: mean tumor weight change, higher = larger tumour. In a few lines: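 Antitumor activity is expressed as a T/C ratio. The treated group's tumor size or survival is compared against the vehicle-treated control group in mice bearing transplanted tumors.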

Values joined by “and” are separate entries in the source; they are usually repeats but may differ in a detail not shown here. Identical values can stand only once. Records with an inconclusive call do not appear. *1 amine or outer side, *2 acyl side, *3 side chain or, on linkers, in order; H or OH if unused. Where a SMILES comes first, the peptide text is derived from it. Bridges are numbered along the chain shown (N, C = ends). Roman numbers before positions name the chains, in order. [ ]: non-standard residue; d: D form. Actinocin(9to1) = Cc1c2oc3c(C)ccc(C(=O)[*:1])c3nc-2c(C(=O)[*:2])c(N)c1=O; aThr = C[C@H](O)[C@H](N)C(=O)O; NMeV = CN[C@H](C(=O)O)C(C)C; Sar = CNCC(=O)O

On to `COc1nc(C(Cl)(Cl)Cl)c(Cl)c(OC)c1Cl`, for which the T/C (dose: 89.0 mg/kg/injection, schedule: Q04DX003 (oral), vehicle: Klucel (hydroxypropylcellulose) (HPC)) is -100 % of control; the T/C (dose: 133.5 mg/kg/injection, schedule: Q04DX003 (oral), vehicle: Klucel (hydroxypropylcellulose) (HPC)) was -100 % of control; the T/C (dose: 200.0 mg/kg/injection, schedule: Q04DX003 (oral), vehicle: Klucel (hydroxypropylcellulose) (HPC)) is -100 % of control; the T/C (dose: 300.0 mg/kg/injection, schedule: Q04DX003 (oral), vehicle: Klucel (hydroxypropylcellulose) (HPC)) was -100 % of control; the T/C (dose: 450.0 mg/kg/injection, schedule: Q04DX003 (oral), vehicle: Klucel (hydroxypropylcellulose) (HPC)) was -100 % of control.
Regarding `CN(C)N=Nc1ccc(C(N)=O)cc1`, the T/C is 85 % of control (dose: 50.0 mg/kg/injection, schedule: Q04DX003 (ip), vehicle: saline with Tween-80); 78 % of control (dose: 100.0 mg/kg/injection, schedule: Q04DX003 (ip), vehicle: saline with Tween-80); 80 % of control (dose: 200.0 mg/kg/injection, schedule: Q04DX003 (ip), vehicle: saline with Tween-80).
Take `CC(=O)O[C@H]1C(=O)[C@@]2(C)C(C(OC(=O)c3ccccc3)[C@]3(O)C[C@H](OC(=O)C(OC(=O)CN(C)C)C(NC(=O)c4ccccc4)c4ccccc4)C(C)=C1C3(C)C)C1(OC(C)=O)COC1C[C@@H]2O` (some centres not stated): the T/C was 64 % of control (dose: 1.88 mg/kg/injection, schedule: Q01DX009 (ip), vehicle: water); 5 % of control (dose: 3.75 mg/kg/injection, schedule: Q01DX009 (ip), vehicle: water); -78 % of control (dose: 5.9 mg/kg/injection, schedule: Q01DX009 (ip), vehicle: water); 4 % of control (dose: 7.5 mg/kg/injection, schedule: Q01DX009 (ip), vehicle: water); -53 % of control (dose: 8.9 mg/kg/injection, schedule: Q01DX009 (ip), vehicle: water); -100 % of control (dose: 13.3 mg/kg/injection, schedule: Q01DX009 (ip), vehicle: water). In addition, the T/C (dose: 15.0 mg/kg/injection, schedule: Q01DX009 (ip), vehicle: water) was -80 % of control and the T/C (dose: 20.0 mg/kg/injection, schedule: Q01DX009 (ip), vehicle: water) is -100 % of control.
With `CC(=O)NCCSSCCCCS(=O)O`, the T/C is 110 % of control (dose: 150.0 mg/kg/injection, schedule: Q04DX003 (ip), vehicle: saline) and 112 % of control (dose: 300.0 mg/kg/injection, schedule: Q04DX003 (ip), vehicle: saline).
Consider `Cc1c2oc3c(C)ccc(C(=O)N[C@@H]4C(=O)N[C@H](C(C)C)C(=O)N5CCC[C@H]5C(=O)N(C)CC(=O)N(C)[C@@H](C(C)C)C(=O)O[C@H]4C)c3nc-2c(C(=O)N[C@@H]2C(=O)N[C@H](C(C)C)C(=O)N3CCC[C@H]3C(=O)N(C)CC(=O)N(C)[C@@H](C(C)C)C(=O)O[C@H]2C)c(N)c1=O` (I: [aThr][dV]P[Sar][NMeV] / II: [aThr][dV]P[Sar][NMeV]; ester I:1-I:C, II:1-II:C; linker I:N-II:N via Actinocin(9to1)), for which the T/C runs as follows: (dose: 25.0 micrograms/kg/injection, schedule: Q01DX010 (sc), vehicle: saline) 100 % of control; (dose: 50.0 micrograms/kg/injection, schedule: Q01DX010 (sc), vehicle: saline) 49 % of control; (dose: 100.0 micrograms/kg/injection, schedule: Q01DX010 (sc), vehicle: saline) 12 % of control; (dose: 200.0 micrograms/kg/injection, schedule: Q01DX010 (sc), vehicle: saline) 1 % of control.
For `O=[N+]([O-])c1ccc(Sc2ccncn2)c([N+](=O)[O-])c1`, the T/C reads like this: (dose: 150.0 mg/kg/injection, schedule: Q04DX003 (sc), vehicle: saline with Tween-80) 158 % of control; (dose: 300.0 mg/kg/injection, schedule: Q04DX003 (sc), vehicle: saline with Tween-80) 153 % of control; (dose: 600.0 mg/kg/injection, schedule: Q04DX003 (sc), vehicle: saline with Tween-80) 86 % of control; (dose: 1200.0 mg/kg/injection, schedule: Q04DX003 (sc), vehicle: saline with Tween-80) 115 % of control.
On to `O=C1C=CC2OC(c3ccccc3)C(O)C2O1` (configuration not stated), for which the T/C is 114 % of control (dose: 25.0 mg/kg/injection, schedule: Q04DX003 (ip), vehicle: DMSO) and 40 % of control (dose: 50.0 mg/kg/injection, schedule: Q04DX003 (ip), vehicle: DMSO).
Regarding `CC(O)CCC(=O)c1ccoc1` (configuration not stated), the T/C (dose: 3.75 mg/kg/injection, schedule: Q01DX010 (ip), vehicle: saline) was 191 % of control; the T/C (dose: 7.5 mg/kg/injection, schedule: Q01DX010 (ip), vehicle: saline) was 95 % of control and 120 % of control; the T/C (dose: 60.0 mg/kg/injection, schedule: Q01DX010 (ip), vehicle: saline) is 49 % of control.
`O=NNc1ccccn1`: the T/C by setting is: (dose: 4.0 mg/kg/injection, schedule: Q01DX010 (sc), vehicle: saline) 124 % of control; (dose: 16.0 mg/kg/injection, schedule: Q01DX010 (sc), vehicle: saline) 80 % of control; (dose: 32.0 mg/kg/injection, schedule: Q01DX010 (sc), vehicle: saline) 14 % of control.
Take `CSCCC(N)C(=O)O` (configuration not stated): the T/C was 101 % of control (dose: 300.0 mg/kg/injection, schedule: Q04DX003 (ip), vehicle: saline with Tween-80); 85 % of control and 105 % of control (dose: 600.0 mg/kg/injection, schedule: Q04DX003 (ip), vehicle: saline with Tween-80); 102 % of control and 112 % of control (dose: 1200.0 mg/kg/injection, schedule: Q04DX003 (ip), vehicle: saline with Tween-80); 91 % of control and 106 % of control (dose: 2400.0 mg/kg/injection, schedule: Q04DX003 (ip), vehicle: saline with Tween-80).
As for `CC(/C=N/N=C(N)N)=N\N=C(N)N`, the T/C runs as follows: (dose: 25.0 mg/kg/injection, schedule: Q01DX010 (sc), vehicle: water) 167 % of control; (dose: 50.0 mg/kg/injection, schedule: Q01DX010 (sc), vehicle: water) 73 % of control; (dose: 100.0 mg/kg/injection, schedule: Q01DX010 (sc), vehicle: water) 43 % of control.
For `CN(C)/N=N/c1nc[nH]c1C(N)=O`, the T/C (dose: 50.0 mg/kg/injection, schedule: Q04DX003 (ip), vehicle: Klucel (hydroxypropylcellulose) (HPC)) is 74 % of control; the T/C (dose: 75.0 mg/kg/injection, schedule: Q04DX003 (ip), vehicle: Klucel (hydroxypropylcellulose) (HPC)) is 87 % of control; the T/C (dose: 112.0 mg/kg/injection, schedule: Q04DX003 (ip), vehicle: Klucel (hydroxypropylcellulose) (HPC)) was 82 % of control; the T/C (dose: 200.0 mg/kg/injection, schedule: Q01DX010 (sc), vehicle: Klucel (hydroxypropylcellulose) (HPC)) was 70 % of control; the T/C (dose: 400.0 mg/kg/injection, schedule: Q01DX010 (sc), vehicle: Klucel (hydroxypropylcellulose) (HPC)) is 14 % of control.
As to `CCCCCCCCCCCCN1C(C)=CS/C1=C\C=C\c1scc(C)[n+]1CCCCCCCCCCCC`, the T/C runs as follows: (dose: 0.75 mg/kg/injection, schedule: Q04DX003 (ip), vehicle: saline with Tween-80) 91 % of control; (dose: 1.5 mg/kg/injection, schedule: Q04DX003 (ip), vehicle: saline with Tween-80) 89 % of control; (dose: 3.0 mg/kg/injection, schedule: Q04DX003 (ip), vehicle: saline with Tween-80) 28 % of control.
Take `O=NN(CCCl)C(=O)NCCO`: the T/C (dose: 3.13 mg/kg/injection, schedule: Q04DX003 (sc), vehicle: water) was 82 % of control; the T/C (dose: 6.25 mg/kg/injection, schedule: Q04DX003 (sc), vehicle: water) was 38 % of control; the T/C (dose: 12.5 mg/kg/injection, schedule: Q04DX003 (sc), vehicle: water) was 7 % of control.
For the compound `O=C(O)CC(=O)O.[NH-]C1CCCCC1[NH-].[Pt+2]` (configuration not stated), the T/C reads like this: (dose: 10.0 mg/kg/injection, schedule: Q01DX010 (sc), vehicle: dextrose) 93 % of control; (dose: 20.0 mg/kg/injection, schedule: Q01DX010 (sc), vehicle: dextrose) 92 % of control; (dose: 30.0 mg/kg/injection, schedule: Q01DX010 (sc), vehicle: dextrose) -84 % of control; (dose: 40.0 mg/kg/injection, schedule: Q01DX010 (sc), vehicle: dextrose) 83 % of control; (dose: 60.0 mg/kg/injection, schedule: Q01DX010 (sc), vehicle: dextrose) -86 % of control; (dose: 80.0 mg/kg/injection, schedule: Q01DX010 (sc), vehicle: dextrose) 74 % of control.
In the case of `Cc1nc(N)nc(N)c1N1CCN(c2ccc(C(=O)NC(CCC(=O)O)C(=O)O)cc2)CC1` (configuration not stated), the T/C reads like this: (dose: 12.5 mg/kg/injection, schedule: Q04DX003 (ip), vehicle: other) 85 % of control; (dose: 25.0 mg/kg/injection, schedule: Q04DX003 (ip), vehicle: other) 112 % of control; (dose: 50.0 mg/kg/injection, schedule: Q04DX003 (ip), vehicle: other) 122 % of control; (dose: 100.0 mg/kg/injection, schedule: Q04DX003 (ip), vehicle: other) 87 % of control.
